From publication PMC11395096, “Study of Pentacyclic Triterpenes from Lyophilised Aguaje: Anti-Inflammatory and Antioxidant Properties” (International Journal of Molecular Sciences, 2024)
Where a name gives a salt, the structure may show the parent alone.

Experiments:
[1] = tested on: NF-κB; assay: NF-κB inhibition assay, LPS-stimulated IC-21 cells; format: cell-based, Mus musculus; settings: IC-21, + LPS 100 μg mL^−1, 72 h; for IC50: compounds series, read-out: Inhibition of NF-κB production IC50
Source text: (§1) The IC-21 (Mus musculus macrophage cells, TIB-186) and RAW 264.7 (Mus musculus macrophage cells, TIB-71) cell lines used in this study were obtained from the American Type Culture Collection (ATCC, Manassas, VA, USA). The selection of IC-21 and RAW 264.7 cell lines for studies on inflammation and antioxidant activity is based on two main reasons: the cell type and their origin. Firstly, both IC-21 and RAW 264.7 cell lines are macrophages, which play a crucial role in the immune system, being essential for the inflammatory response and regulation of oxidative stress. These cells have the capacity to produce pro-inflammatory cytokines, express transcription factors such as NF-κB, and generate NO, making them ideal models to understand inflammatory mechanisms. Moreover, macrophages are involved in the activation of Nrf2, a transcription factor critical for the antioxidant response, allowing these cell lines to enable a comprehensive assessment of antioxidant activity within an inflammatory context.
(§2) Stock solutions of the samples (extracts and compounds) were prepared at a concentration of 1 mM using dimethyl sulfoxide (DMSO ≥ 99.9% Sigma-Aldrich, CAS No. 67-68-5, St. Louis, MO, USA) as the solvent. Dilutions from these stock solutions were then made to achieve concentrations between 100 and 0.20 μg mL^−1 or μM in the culture medium, which contained 0.5% DMSO. A control group consisting only of the culture medium with 0.5% DMSO was also included to determine its potential cytotoxicity.
(§3) The 50% cytotoxic concentration (CC50), 50% inhibitory concentration (IC50), and half-maximal effective concentration (EC50) values were calculated using the sigmoidal dose–response function. All experiments were conducted in triplicate, and the data obtained were expressed as the mean and standard deviation. A two-way analysis of variance (ANOVA) combined with Dunnett’s multiple comparisons test (p < 0.001) was performed for the cytotoxicity, NF-κB inhibition, NO inhibition and Nrf2 activation assays, while a one-way ordinary ANOVA combined with Dunnett’s multiple comparisons test (p < 0.001) was conducted for the SOD assay. All statistical analyses were performed using GraphPad Prism version 10.0.0 (La Jolla, CA, USA, www.graphpad.com, accessed on 28 August 2024).
(§4) To assess the anti-inflammatory potential of the samples at the same concentrations used in the cell viability assay, an NF-κB inhibition assay was used following the approach established by Apaza Ticona et al.. Cells were seeded in 96-well plates at a density of 3 × 10^3 cells per well. […] Absorbance was quantified at 450 nm using a microplate reader.

[2] = tested on: NO production; assay: NO inhibition assay, LPS-stimulated RAW 264.7 cells; format: cell-based, Mus musculus; settings: RAW 264.7, + LPS 100 μg mL^−1, 72 h
Source text: as §1, §2, §3
(§5) To determine the anti-inflammatory activity of the samples (at the same concentration as in the viability assay), the […] was used, implementing the protocol adapted from Guo et al.. Cells were cultured in 96-well plates (1 × 10^4 cells per well). […] Absorbance was measured at 540 nm using a microplate reader.

[3] = tested on: NO production; assay: NO inhibition assay, LPS-stimulated IC-21 cells; format: cell-based, Mus musculus; settings: IC-21, + LPS 100 μg mL^−1, 72 h
Source text: as §1, §2, §3, §5

[4] = tested on: NF-κB; assay: NF-κB inhibition assay, LPS-stimulated RAW 264.7 cells; format: cell-based, Mus musculus; settings: RAW 264.7, + LPS 100 μg mL^−1, 72 h; for IC50: compounds series, read-out: Inhibition of NF-κB production IC50
Source text: as §1, §2, §3, §4

[5] = NR (neutral red) viability assay, IC-21 cells; format: cell-based, Mus musculus; settings: mouse, IC-21 macrophage cells, IC-21, 72 h, compounds series
Source text: as §1
(§6) Cultivated in a Roswell Park Memorial Institute (RPMI) 1640 medium (RPMI 1640 Sigma-Aldrich, CAS No. R7755, St. Louis, MO, USA) supplemented with 2 mM L-glutamine (≥99% Sigma-Aldrich, CAS No. 56-85-9, St. Louis, MO, USA), 10% foetal bovine serum (FBS Sigma-Aldrich, CAS No. TMS-016, St. Louis, MO, USA), and 10,000 units of penicillin and 10 mg streptomycin mL^−1 (Sigma-Aldrich, CAS No. P4333, St. Louis, MO, USA) in culture flasks, the cells were maintained in an incubator under normoxic conditions (20–21% O2) and a humidified atmosphere (5% CO2, at 37 °C).
as §2, §3
(§7) Cell viability was evaluated using a colorimetric assay in 96-well plates, employing 3-amino-7-dimethylamino-2-methylphenazine hydrochloride salt reagent (NR, Sigma-Aldrich, CAS No. 553-24-2, St. Louis, MO, USA). ACTD (≥95% Sigma-Aldrich, CAS No. 50-76-0, St. Louis, MO, USA) was used as a positive control, with a CC50 value of 0.01 μg mL^−1 for the extracts, or 0.008 μM for the compounds. The IC-21 and RAW 264.7 cell lines were cultured in 96-well plates at 37 °C with 5% CO2 until >90% confluency was achieved (1 × 10^4 cells per well). Subsequently, the cultures were treated with sample dilutions (100–0.20 μg mL^−1 or μM) for 72 h at 37 °C with 5% CO2 in phenol red-free RPMI. The supernatant was then discarded, and the cells were washed with phosphate-buffered saline (PBS) before being incubated with […] NR (50 μg mL^−1; 173 μM) for 3 h at 37 °C with 5% CO2. NR labelling was performed after DMSO treatment. […]

[6] = tested on: IC-21 cell line; assay: NR (neutral red) viability assay, IC-21 cells; format: cell-based, Mus musculus; settings: IC-21, 72 h, compounds series
Source text: as §1, §6, §2, §3, §7

[7] = tested on: Nrf2; assay: Nrf2 activation assay, RAW 264.7 cells; format: cell-based, Mus musculus; settings: RAW 264.7, 72 h, read-out: Activation of Nrf2 production EC50
Source text: as §1, §2, §3
(§8) To determine the antioxidant response of the samples (at the same concentration as in the viability assay), the Nrf2 activation assay was used following the protocol carried out by Apaza Ticona et al.. Cells were cultured in 96-well plates (1 × 10^4 cells per well). […] Absorbance was measured at 540 nm using a microplate reader.

[8] = molecular target: Superoxide Dismutase (SOD); assay: SOD activation assay (kit); format: biochemical; settings: 72 h; for EC50: compounds series
Method: as §3
To determine the antioxidant response of the samples (at the same concentration as in the viability assay), the SOD activation assay kit (Sigma-Aldrich, CAS No. MAK528, St. Louis, MO, USA) was used, implementing the protocol adapted from Vincent et al.. […] Absorbance was measured at 450 nm using a microplate reader.

[9] = NR (neutral red) viability assay, RAW 264.7 cells; format: cell-based, Mus musculus; settings: mouse, RAW 264.7 macrophage cells, RAW 264.7, 72 h, compounds series
Source text: as §1, §6, §2, §3, §7

[10] = tested on: RAW 264.7 cell line; assay: NR (neutral red) viability assay, RAW 264.7 cells; format: cell-based, Mus musculus; settings: RAW 264.7, 72 h, compounds series
Source text: as §1, §6, §2, §3, §7

[11] = tested on: Nrf2; assay: Nrf2 activation assay, IC-21 cells; format: cell-based; settings: Mus musculus, 72 h, IC-21, 72 h, read-out: Activation of Nrf2 production EC50
Source text: as §1, §2, §3, §8

[12] = tested on: NF-κB; assay: NF-κB inhibition assay, value not assigned to one cell line; format: cell-based; settings: Mus musculus
Method: as §4

[13] = tested on: NF-κB; set-up: method as in PMID 24853120, PMID 15668926; settings: cited from earlier work
[14] = tested on: NO production; assay: NO inhibition assay, value not assigned to one cell line; format: cell-based; settings: Mus musculus
Method: as §5

[15] = tested on: Nrf2; assay: Nrf2 activation assay, value not assigned to one cell line; format: cell-based, Mus musculus
Method: as §8

[16] = Mus musculus, RAW264.7, 72 h, compounds series
[17] = Mus musculus, 72 h, compounds series
[18] = Mus musculus, RAW264.7, 72 h, extracts series
[19] = RAW264.7, across IC-21 and RAW 264.7 / cell line not given, compounds series
[20] = Mus musculus, RAW264.7, across IC-21 and RAW 264.7 / cell line not stated, compounds series

Molecule	IC50 ([1]; Mus musculus, 72 h) [µM]	IC50 [2, 16] [µM]	CC50 at 72 h [5] [µM]	IC50 [3, 17] [µM]	EC50 [7, 16] [µM]	IC50 ([4]; Mus musculus, RAW264.7, 72 h) [µM]	EC50 [8] [µM]	CC50 at 72 h [9] [µM]	CC50 [10] [µM]	EC50 ([11]; compounds series) [nM]	also measured
lipopolysaccharide [LPS, reference compound]	–	–	–	–	–	–	–	–	–	–	IC50 [1]: 95.8 µM; Inhibition of NF-κB production IC50 ([1]; extracts series): 97.5 µg/mL; IC50 ([2]; compounds series): 98.3 µM; Inhibition of NO production IC50 ([2]; extracts series): 97.2 µg/mL; IC50 ([3]; compounds series): 97 µM; Inhibition of NO production IC50 ([3]; extracts series): 95.2 µg/mL; IC50 [4]: 99.2 µM; Inhibition of NF-κB production IC50 ([4]; extracts series): 98.7 µg/mL
C[C@H]1[C@H](C)CC[C@]2(C(=O)O)CC[C@]3(C)C(=CC(=O)[C@@H]4[C@@]5(C)CC[C@H](O)C(C)(C)[C@@H]5CC[C@]43C)[C@H]12 [compound 3, (3β)-3-hydroxy-11-oxours-12-en-28-oic acid]	21	24.8	88.5	16.6	1.14	27.1	13.2	92.4	92.4	1030	CC50 [6]: 88.5 µM
CC1=C(O)C(=O)C=C2C1=CC=C1[C@@]2(C)CC[C@@]2(C)[C@@H]3C[C@](C)(C(=O)O)CC[C@]3(C)CC[C@]12C [CEL, celastrol]	–	–	–	–	–	–	–	–	–	–	IC50 ([12]; RAW264.7, read-out: NF-κB inhibition IC50): 7.41 µM; IC50 ([12]; read-out: NF-κB inhibition IC50): 3.34 µg/mL
O=c1c(O)c(-c2ccc(O)c(O)c2)oc2cc(O)cc(O)c12 [quercetin]	–	–	–	–	–	–	–	–	–	–	concentration capable of inhibiting NF-κB activation [13]: 25 to 100 µM
COc1cc(/C=C/C(=O)CC(=O)/C=C/c2ccc(O)c(OC)c2)ccc1O [curcumin]	–	–	–	–	–	–	–	–	–	–	concentration capable of inhibiting NF-κB activation [13]: 10 to 50 µM
[H]/N=C(/NC)NCCC[C@H](N)C(=O)O [LNMMA, N^G-methyl-L-arginine acetate salt]	–	6.83	–	6.43	–	–	–	–	–	–	IC50 [2, 18]: 1.64 µg/mL; IC50 [14, 19]: 6.63 µM; IC50 ([14]; cell line not stated, extracts series): 1.61 µg/mL; IC50 ([3]; Mus musculus, 72 h, extracts series): 1.57 µg/mL
COC(=O)[C@]12CCC(C)(C)C[C@H]1[C@H]1C(=O)C=C3[C@@]4(C)C=C(C#N)C(=O)C(C)(C)[C@@H]4CC[C@@]3(C)[C@]1(C)CC2 [CDDO-Me, bardoxolone methyl, reference compound]	–	–	–	–	0.00013	–	–	–	–	0.09	EC50 [15, 20]: 0.09 to 0.13 nM; EC50 ([15]; Mus musculus, cell line not stated, extracts series): 0.07 ng/mL; EC50 ([15]; across IC-21 and RAW 264.7 / cell line not given, compounds series): 0.11 nM; EC50 [7, 18]: 0.08 ng/mL; EC50 ([11]; extracts series): 0.05 ng/mL
CC(=O)O[C@H]1CC[C@]2(C)[C@H]3C(=O)C=C4[C@@H]5[C@@H](C)[C@H](C)CC[C@]5(C(=O)O)CC[C@@]4(C)[C@]3(C)CC[C@H]2C1(C)C [compound 2, (3β)-3-acetyloxy-11-oxours-12-en-28-oic acid]	13.4	15.5	78.5	11.3	0.772	20	7.43	84.9	84.9	524	–
C[C@H]1[C@H](C)CC[C@]2(C(=O)O)CC[C@]3(C)C(=CC(=O)[C@@H]4[C@@]5(C)CCC(=O)C(C)(C)[C@@H]5CC[C@]43C)[C@H]12 [compound 1, 3,11-dioxours-12-en-28-oic acid]	7.39	6.59	67.6	4.75	0.548	8.11	1.87	75.4	75.4	243	EC50 [15, 20]: 243 to 548 nM; IC50 ([12]; RAW264.7, across IC-21 and RAW 264.7 / cell line not given, compounds series, read-out: NF-κB inhibition IC50): 7.39 to 8.11 µM; CC50 [6]: 67.6 µM; IC50 [14, 19]: 4.75 to 6.59 µM; EC50 ([7]; compounds series): 0.548 µM
O=C(O)c1cc(O)c(O)c(O)c1 [GA, gallic acid, reference compound]	–	–	–	–	–	–	12.1	–	–	–	SOD activation EC50 ([8]; extracts series): 2.06 µg/mL
